Measured values from patent US5776957A, “Nornicotine enantiomers for use as a treatment for dopamine related conditions and disease states” (The University of Kentucky Research Foundation, priority 1996, dated 1998).
Entries after “also recorded” stand apart in the source; their conditions may differ. Where two headings read alike, the source gives them in different places.

What was measured:
[1] = test system: [3H]DA-preloaded rat striatal slices (nicotinic receptors); test: [3H]overflow (DA release) from [3H]DA-preloaded rat striatal slices; type: cell-based
Experimental: In vitro pharmacological effects of NIC are generally investigated using either striatal slices or synaptosome preparations preloaded with [^3 H] DA. NIC-evoked [^3 H]overflow is obtained routinely in the presence of nomifensine (10 μM; a DA uptake inhibitor) and for pargyline (10 μM, a monoamine oxidase inhibitor) in the superfusion buffer, such that [^3 H]overflow represents primarily [^3 H]DA rather than [H]DA-metabolites (Zumstein et al., 1981, Hoffmann and Cubeddu, 1982, Dwoskin and Zahniser, 1986, Rapier et al., 1988), and for this reason, [^3 H]overflow also will be referred to as [^3 H] DA release in the proposal.
The present studies use striatal slices superfused with various concentrations of NIC or norNIC for prolonged periods.
FIG. 4. […] Insets illustrate the response to the low concentration range. […] NIC exposure indicated by the bar under time course. Note: 1-min sample collection period. […] N=4 rats.
Rat striatal slices were depolarized with 10 μM NIC, 20 mM K+or 1 Hz, 60 pulses or 3 Hz, 180 pulses electrical field stimulation. […] N=4.
MEC or DHβE was included in the superfusion buffer for 60 min prior to the addition of NIC, and superfusion continued for 60 min in the presence of NIC+antagonist.

[2] = Locomotor activity assay, acute and repeated treatment, S(-) nicotine challenge, saline challenge; type: in vivo, rat; settings: for behavioral sensitization after repeated administration: 8 injections once every 48 hrs, nicotine 1 mg/kg, R(+) 0.3-10 mg/kg; for conditioned response to repeated administration (saline challenge): 48 hrs after S(-) nicotine challenge; for cross-sensitization to S(-) nicotine: repeated S(-) nornicotine
Experimental: (I mg/kg), norNIC (0.3-10 mg/kg) or R(+) norNIC (0.3-10 mg/kg) was administered peripherally (s.c., 8 injections once every 48 hrs) to groups of rats and locomotor activity was assessed for 50 min immediately after each injection.
In the present study, S(-) nicotine (1 mg/kg), R(+) nornicotine (1-10 mg/kg), S(-) nornicotine (1-10 mg/kg), or vehicle (saline) were administered s.c. to groups of rats (n=6) acutely or repeatedly (8 injections once every 48 hrs). Locomotor activity was measured during 50 min sessions immediately following drug or vehicle administration.
Male Sprague-Hawley rats (225-250 g) from Harlan Laboratories were housed two per cage with free access to food and water.
Activity was recorded automatically in a wooden test-chamber measuring 30×28×43 cm high. The chamber had white walls and a wire mesh floor over pine chip bedding. Two photobeams located 4.5 cm above the floor divided the chamber into four equal quadrants. Electromechanical equipment located in an adjacent room recorded photobeam interruptions automatically. A white noise generator provided an ambient 70 dB background noise in the test room in order to minimize extraneous sounds that might influence the animal's behavior in the test chamber. Rats were habituated to the chamber for 50 min on each of three consecutive days.
On the day immediately after the third habituation session, rats were randomly divided into groups (n=6/group) and were administered s.c. either S(-) nicotine (1 mg/kg), R(+) nornicotine (0.3, 1, 3 and 10 mg/kg), or vehicle (saline) to determine acute drug effects on locomotor activity. In a separate experiment, rats (n=6/group) were administered s.c. either S(-) nicotine (1 mg/kg), S(-) nornicotine (0.3, 1, 3 and 10 mg/kg), or vehicle (saline). To determine the effect of repeated drug administration on locomotor activity, drug or vehicle was administered respectively in the test-room once every 48 hrs for a total of 8 injections. After each injection, locomotor activity was recorded during a 50 min session (five 10-min blocks). On the ninth injection day (48 hrs following injection 8), each group of rats was administered a challenge dose (1 mg/kg) of S(-) nicotine in the test-room, and locomotor activity was determined immediately thereafter. On the tenth injection day, each group of rats was administered saline and locomotor activity recorded to determine potential conditioning effects of the repeated drug administration.
Post hoc analysis of pairwise comparisons was performed with Duncan's New Multiple Range test.

[3] = test system: mouse striatal synaptosomes; settings: Grady et al., cited from earlier work
[4] = cited from earlier work
[5] = test system: rat and mouse striatal synaptosomes; settings: Rapier, El-Bizri, Rowell; cited from earlier work
[6] = test system: nicotinic receptor sites in the brain; test: displacement of nicotine from nicotinic receptor sites in the brain; type: binding
[7] = hemodynamic function in conscious animals; type: in vivo; settings: behaviorally active doses
[8] = test system: rat striatal slices; settings: 0.1-100 μM, 15 min exposure, Dwoskin et al., 1993, cited from earlier work
[9] = rats; cited from earlier work
[10] = cited from earlier work; remark: listed apart in the source
[11] = acute S(-) nornicotine 1 and 3 mg/kg
[12] = repeated S(-) nornicotine 3 mg/kg

## CN1CCC[C@H]1c1cccnc1 [S(-) nicotine]
[1]
  absolute [3H]overflow vs 20 mM K+ or 1 Hz, 60 pulses stimulation: not significantly different
  evoked [3H]overflow: increase in [^3 H]overflow; also recorded: stereoselective and concentration dependent increase
  plateau in [3H]overflow: 30 mM
  plateau in response: fail to produce a plateau in response
  time of peak effect: 10 to 15 min
  time of return of release to basal levels: 30 to 60 min
[2]; S(-) nornicotine 10 mg/kg
  behavioral sensitization after repeated administration: robust behavioral sensitization
[2]
  conditioned response to repeated administration (saline challenge): did not contribute to the observed behavioral sensitization
[2]; R(+) experiment, S(-) nicotine 1 mg/kg group
  cumulated locomotor activity after saline challenge: 485 ± 41 number of photobeam interruptions/50 min session
[2]; S(-) experiment, S(-) nicotine 1 mg/kg group
  cumulated locomotor activity after saline challenge: 429 ± 34 number of photobeam interruptions/50 min session
[2]; acute S(-) nicotine 1 mg/kg, 20-40 min
  locomotor activity time course: did not alter activity
[2]; acute S(-) nicotine 1 mg/kg, first 10 min
  locomotor activity time course: significantly decreased activity
[2]; acute S(-) nicotine 1 mg/kg, last 10 min
  locomotor activity time course: significantly increased locomotor activity
[2]; acute, S(-) nicotine 1 mg/kg
  cumulated locomotor activity vs saline-control: not different from the saline-control group; also recorded: did not alter
[2]; repeated S(-) nicotine group vs saline-control
  cumulated locomotor activity after S(-) nicotine challenge: significantly increased
[2]; repeated S(-) nicotine, first 20 min (R(+) experiment) vs saline-control
  time course after S(-) nicotine challenge: significantly increased
[2]; repeated S(-) nicotine, first 30 min (S(-) experiment)
  time course after S(-) nicotine challenge: significantly greater
[2]; repeated S(-) nicotine, majority of time course
  locomotor activity time course: significant increase in activity
[2]; repeated, S(-) nicotine 1 mg/kg, 8 injections
  cumulated locomotor activity vs saline-control: significantly increased locomotor activity
[3]; 1992, read-out: EC50 for NIC-stimulated, MEC-sensitive [3H]overflow
  EC50: 480 nM
[3]; 1994, 0.1-30 μM, 10 min exposure, read-out: EC50, peak DA release
  EC50: 330 nM
[4]
  cross-sensitization between nicotine and amphetamine: has not been observed
[5]
  plateau concentration of concentration-response curve: 1 to 100 µM

## c1cncc([C@@H]2CCCN2)c1 [S(-) nornicotine, S-(-) nornicotine]
[1]; Rattus norvegicus, read-out: EC50 for norNIC stimulated, DHβE-sensitive [3H]overflow
  EC50: 880 ± 310 nM
[1]; concentration-dependent
  evoked [3H]overflow: increase in [^3 H]overflow; also recorded: stereoselective and concentration dependent increase
[1]; concentration-response curve, 60-min exposure
  plateau in response: not observed at concentrations up to 3 mM; also recorded: fail to produce a plateau in response
[1]; neuronal tissue
  release of dopamine from presynaptic terminals: stereoselective and receptor-mediated
[2]; S(-) nornicotine 10 mg/kg
  behavioral sensitization after repeated administration: produces behavioral sensitization; also recorded: behavioral sensitization following repeated administration of the high dose of S(-) nornicotine was observed
[2]; S(-) nornicotine 10 mg/kg, listed as S-(-)- norNIC
  behavioral sensitization after repeated administration: produces behavioral sensitization
[2]
  conditioned response to repeated administration (saline challenge): did not contribute to the observed behavioral sensitization
  cross-sensitization to S(-) nicotine: cross-sensitization to S(-) nicotine was observed
[2]; S(-) experiment, 0.3 mg/kg
  cumulated locomotor activity after saline challenge: 352 ± 17 number of photobeam interruptions/50 min session
[2]; S(-) experiment, 1.0 mg/kg
  cumulated locomotor activity after saline challenge: 333 ± 38 number of photobeam interruptions/50 min session
[2]; S(-) experiment, 3.0 mg/kg
  cumulated locomotor activity after saline challenge: 394 ± 50 number of photobeam interruptions/50 min session
[2]; S(-) experiment, 10 mg/kg
  cumulated locomotor activity after saline challenge: 459 ± 26 number of photobeam interruptions/50 min session
[2]; S(-) nornicotine 10 mg/kg, repeated
  locomotor activity after the seventh injection: 364±32 photobeam interruptions
[2]; acute S(-) nornicotine 0.3 mg/kg
  cumulated locomotor activity vs saline-control: significantly increased
[2]; acute S(-) nornicotine 0.3 mg/kg, first 20 min
  locomotor activity time course: significant increase in activity
[2]; acute S(-) nornicotine 10 mg/kg
  cumulated locomotor activity vs saline-control: significant decrease in activity
[2]; acute S(-) nornicotine 10 mg/kg, first 10 min
  locomotor activity time course: decreased during the first 10 min of the session
[2]; [11]
  cumulated locomotor activity vs saline-control: not different from the saline-control group
  locomotor activity time course: not different from the saline-control group
[2]; acute, 0.3 and 10 mg/kg, R(+) experiment
  cumulated locomotor activity vs saline-control: significant decrease in locomotor activity
[2]; acute, 1 and 3 mg/kg, R(+) experiment
  cumulated locomotor activity vs saline-control: not different from control
[2]; acute, S(-) nornicotine 3 mg/kg
  locomotor activity, first 10 min: 121±14 photobeam interruptions
[2]; repeated S(-) nornicotine 0.3 mg/kg
  tolerance to acute stimulatory effect: tolerance to the acute stimulatory effect
[2]; [12]
  locomotor activity, first 10 min: 101±12 photobeam interruptions
  locomotor activity, first 10 min after S(-) nicotine challenge: 134±21 photobeam interruptions
  tolerance to depressant effect: tolerance did not develop
[2]; repeated S(-) nornicotine 10 mg/kg
  tolerance to depressant effect: also observed; also recorded: tolerance developed
[2]; repeated S(-) nornicotine 10 mg/kg, 10-min and 30-min time points
  time course after S(-) nicotine challenge: stimulated significantly
[2]; repeated S(-) nornicotine 10 mg/kg, 20-40 min
  locomotor activity time course: significantly greater than that of the saline-control group
[2]; repeated S(-) nornicotine 10 mg/kg, last administration
  locomotor activity vs saline-control: stimulated significantly above that of the saline-control group
[2]; repeated S(-) nornicotine 0.3-3 mg/kg
  locomotor activity time course: not different from the saline-control group
[2]; repeated S(-) nornicotine 0.3 and 1 mg/kg
  time course after S(-) nicotine challenge: not different from that of the saline-control group
[2]; repeated S(-) nornicotine 0.3 and 1.0 mg/kg
  cumulated locomotor activity after S(-) nicotine challenge: no effect
[2]; repeated S(-) nornicotine 1 and 3 mg/kg
  locomotor activity vs saline-control: not different from that of the saline-control group
[2]; repeated S(-) nornicotine 3 and 10 mg/kg
  cumulated locomotor activity after S(-) nicotine challenge: significantly stimulated locomotor activity
[2]; listed as norNIC
  cross-sensitization to S(-) nicotine: cross-sensitization was observed
[6]
  displacement of nicotine from nicotinic receptor sites: cause displacement of nicotine
[7]
  effect on hemodynamic function: no adverse effective on hemodynamic function
[8]
  endogenous DA release: concentration-dependent and Ca+-dependent increase
[8]; listed as S(-) enantiomer of norNIC
  endogenous DA release: concentration-dependent and Ca^++ -dependent increase
[4]; behavioral sensitization
  potency relative to nicotine: less potent than nicotine
[9]
  substitution for nicotine in drug discrimination: substitutes fully for nicotine
[10]
  detection in urine of human smokers: detectable in the urine of human smokers
